{"source": "patent US20040186046A1", "about": "“Treatment of type 1 diabetes with PDE5 inhibitors” (Pfizer Inc, priority 2003, published 2004)", "key": {"U397 cells": {"system": "U397 cells", "conditions": "statement quoted from U.S. Pat. No. 6,479,493, column 38; cited from earlier work"}, "[1]": {"experiment": "Sildenafil mean plasma concentration (free drug) in normal and STZ-treated rats on chronic sc dosing", "format": "in vivo, rat", "conditions": "chronic sildenafil 3 × 20 mg/kg sc/day", "description": "(§1) To induce Type 1 diabetes, rats of 200-250 g were injected intra-peritoneally with streptozotocin (60 mg/kg) in citrate phosphate buffer, pH4.5 or the equivalent volume of vehicle. The development of non-keturonic hyperglycaemic diabetes was induced within 48 h and was confirmed by determining blood glucose levels in blood obtained from the tail vein of the rats at 48 h after STZ administration and monitored […] thereafter.\nThroughout this period blood samples were taken from the tail vein on a weekly basis. These samples were taken prior to dosing so that trough concentrations could be estimated (ie at 6-8 h post dose). A further sample was taken at week 8 ([…] post dosing)."}, "[2]": {"system": "control and STZ-treated rats", "experiment": "Plasma glucose in control and STZ-treated rats (model of Type 1 diabetes) on chronic sildenafil", "format": "in vivo, rat", "conditions": "for minimum glucose levels (Table 3), Change from vehicle / minimum glucose levels (Table 3), Sildenafil group / minimum plasma glucose (Table 2), Change from vehicle / minimum plasma glucose (Table 2), Sildenafil group: sildenafil 60 mg/kg/day sc; for minimum plasma glucose (Table 2), Change from vehicle / minimum plasma glucose (Table 2), Sildenafil group: average, week 2 to week 6; for statistical significance (p) of effect of sildenafil on minimum glucose levels / statistical significance (p) of effect of Sildenafil on average glucose: vs vehicle", "description": "STZ is a nitrosamine which is toxic to the pancreatic β-cells and STZ-treated rats have been used as an experimental model for Type 1 diabetes (see e.g. Ari et al, Clin Sci (Colch) 1999:96:365).\nas §1\nThe Sildenafil-treated rats were divided in two group—normal and STZ-treated. In addition, there were two non-sildenafil groups—again normal and STZ treated. Throughout this period blood samples were taken from the tail vein on a weekly basis. These samples were taken prior to dosing so that trough concentrations could be estimated (ie at 6-8 h post dose). A further sample was taken at week 8 ([…] post dosing). Plasma from these blood samples, from all rats treated with sildenafil, and some controls, were assayed for sildenafil (and its n-desmethyl metabolite).\nThe plasma from these samples was stored at −20° C. and analysed for levels of glucose using the Roche/Hitachi 912 Clinical Chemistry Analyzer (Roche Diagnostics Corp., Indianapolis, Ind.) with kits supplied by Roche. All assays were conducted according to instructions provided by the manufacturers."}}, "data": [{"molecule": "CCCc1nn(C)c2c(=O)[nH]c(-c3cc(S(=O)(=O)N4CCN(C)CC4)ccc3OCC)nc12", "note": "[Sildenafil, 5-[2-ethoxy-5-(4-methyl-1-piperazinylsulphonyl)phenyl]-1-methyl-3-n-propyl-1,6-dihydro-7H-pyrazolo[4,3-d]pyrimidin-7-one]", "values": [{"measurement": "induction of apoptosis", "setting": "U397 cells", "value": "does not induce apoptosis"}, {"measurement": "Sildenafil Mean plasma concentration (free drug)", "setting": "[1]; Normal rats, 2 weeks (6-8 h post dose), n = 12", "value": 36, "unit": "nM"}, {"measurement": "Sildenafil Mean plasma concentration (free drug)", "setting": "[1]; Normal rats, 4 weeks (6-8 h post dose), n = 12", "value": 45, "unit": "nM"}, {"measurement": "Sildenafil Mean plasma concentration (free drug)", "setting": "[1]; Normal rats, 6 weeks (6-8 h post dose), n = 12", "value": 45, "unit": "nM"}, {"measurement": "Sildenafil Mean plasma concentration (free drug)", "setting": "[1]; Normal rats, 8 weeks (32-35 h post dose), n = 12", "value": 28, "unit": "nM"}, {"measurement": "Sildenafil Mean plasma concentration (free drug)", "setting": "[1]; STZ rats, 2 weeks (6-8 h post dose), N = 6-10", "value": 79, "unit": "nM"}, {"measurement": "Sildenafil Mean plasma concentration (free drug)", "setting": "[1]; STZ rats, 4 weeks (6-8 h post dose), N = 6-10", "value": 41, "unit": "nM"}, {"measurement": "Sildenafil Mean plasma concentration (free drug)", "setting": "[1]; STZ rats, 6 weeks (6-8 h post dose), N = 6-10", "value": 57, "unit": "nM"}, {"measurement": "Sildenafil Mean plasma concentration (free drug)", "setting": "[1]; STZ rats, 8 weeks (32-35 h post dose), N = 6-10", "value": 11, "unit": "nM"}, {"measurement": "minimum glucose levels (Table 3), Change from vehicle", "setting": "[2]; Control rats", "value": -13, "unit": "mg/dL"}, {"measurement": "minimum glucose levels (Table 3), Sildenafil group", "setting": "[2]; Control rats", "value": 176, "unit": "mg/dL"}, {"measurement": "minimum plasma glucose (Table 2), Change from vehicle", "setting": "[2]; Control rats", "value": -25, "unit": "mg/dL"}, {"measurement": "minimum plasma glucose (Table 2), Sildenafil group", "setting": "[2]; Control rats", "value": 190, "unit": "mg/dL"}, {"measurement": "statistical significance (p) of effect of sildenafil on minimum glucose levels", "setting": "[2]; STZ-treated animals, statistically significant effect", "value": "< 0.01"}, {"measurement": "minimum glucose levels (Table 3), Change from vehicle", "setting": "[2]; STZ-treated rats", "value": -269, "unit": "mg/dL"}, {"measurement": "minimum glucose levels (Table 3), Sildenafil group", "setting": "[2]; STZ-treated rats", "value": 462, "unit": "mg/dL"}, {"measurement": "minimum plasma glucose (Table 2), Change from vehicle", "setting": "[2]; STZ-treated rats", "value": -220, "unit": "mg/dL"}, {"measurement": "minimum plasma glucose (Table 2), Sildenafil group", "setting": "[2]; STZ-treated rats", "value": 583, "unit": "mg/dL"}, {"measurement": "statistical significance (p) of effect of Sildenafil on average glucose", "setting": "[2]; STZ-treated rats", "value": "< 0.05"}, {"measurement": "effect on average plasma glucose (in words)", "setting": "[2]; control and STZ-treated rats, decrease greater in STZ-treated animals", "value": "lowered average glucose in both types of rat"}, {"measurement": "statistical significance (p) of effect of Sildenafil on average glucose", "setting": "[2]; control rats", "value": "< 0.01"}, {"measurement": "statistical significance (p) of effect of sildenafil on minimum glucose levels", "setting": "[2]; control rats, no statistically significant effect", "value": "> 0.10"}]}]}
